The text below walks through data of patent US20050014689A1, “Remedies for life style-related diseases or cibophobia and method of screening the same” (priority 2001, published 2005).

In the series the test system is clone 901 mRNA. Kind of series: Effect of intracerebroventricular antisense DNA administration on food consumption of normal and obese mice. The series is classed as in vivo. The note with it: 30 μg/mouse into lateral ventricle. From the text:
reagent: clone 901 antisense DNA was a mixture of two kinds of 25mer antisense DNAs relative to the vicinity of the gene initiation codon and synthesis, thiolation and HPLC purification were committed to Nihon Bio Service Co., Ltd.
Test animal: male C57BL/6N (hereinafter normal mouse) and C57BL db/db (hereinafter obese mouse) (SPF grade) were purchased from Charles River, Japan, Inc. and CLEA JAPAN, INC., respectively, and after preliminary breeding, normal mice were used for the test at the age of 9 weeks and the obese mice were used for the test at the age of 11 weeks.
Breeding environment: The mice were bred in a room controlled to a temperature of not lower than 20° C. and not higher than 26° C., relative humidity of not less than 30% and not more than 70%, lighting cycle of 8:00-20:00 lighting and 20:00-8:00 lights-out. During breeding, the mice were allowed a free access to a solid feed (CE-2, CLEA JAPAN) and sterile distilled water.
As an antisense DNA administration liquid, an artificial cerebrospinal fluid (0.166 g/L CaCl2, 7.014 g/L NaCl, 0.298 g/L KCl, 0.203 g/L MgCl2.6H2O, 2.10 g/L NaHCO3) containing 7.5 μg/μl of antisense DNA was prepared. In addition, an artificial cerebrospinal fluid free of antisense DNA was used as a solvent control liquid.
The normal mice and obese mice were divided into two groups each, and after fasting overnight, an antisense DNA was administered at 4 μl/mouse (30 μg/mouse in the amount of antisense DNA) to one group and a solvent control liquid (4 μl/mouse) was administered into the lateral ventricle of the other group, simultaneously with the lighting at 8:00 a.m.
Feeding of mice was resumed immediately after administration, and food consumption was calculated at 12 hours after administration. […] The food consumption from 12 hr to 24 hr after administration was calculated. […] In the normal mice, no effect of antisense DNA of clone 901 was found.

“antisense DNA of clone 901: mixture of two thiolated 25mer antisense DNAs (SEQ ID No 3 and No 4) to the vicinity of the clone 901 initiation codon (antisense 1 GCTTCGCAGCGCTCGCTGGGCGGCG; antisense 2 AGTGGGCCACAGCTCCACATGGCAG; DNA, all phosphorothioate, methylation of C not given here)”: the “effect on food consumption” value is reported as “no effect” (normal mice (C57BL/6N), 12 hr to 24 hr after administration); “food consumption-decreasing effect” (normal mice (C57BL/6N), immediately after administration to 12 hours); “suppressed to the same level with the normal mice” (obese mice (C57BL db/db), 12 hr to 24 hr after administration); “food consumption-decreasing effect” (obese mice (C57BL db/db), immediately after administration to 12 hours).
